From PMC6696243, “Synthesis and In Vitro Evaluation of 8-Pyridinyl-Substituted Benzo[e]imidazo[2,1-c][1,2,4]triazines as Phosphodiesterase 2A Inhibitors” (Molecules, 2019)
“And” between values parts separate entries of the source, which are not always exact repeats. Identical values can stand only once. “Also recorded” adds a separate entry of the source.

What was measured:
PDE5A1 = target: T1, PDE5A1 (Homo sapiens, UniProt O76074); assay: PDE5A1 radiometric enzyme inhibition assay; format: biochemical; conditions: compound at 1 µM; read-out: Inhibition of PDE Sub-Types (%) 5A1
T1 construct: purchased SB Drug Discovery (Scotland, U.K.); host or cells: baculoviral system

PDE9A1 = target: T2, PDE9A1 (Homo sapiens, UniProt O76083); assay: PDE9A1 radiometric enzyme inhibition assay; format: biochemical; conditions: compound at 1 µM; read-out: Inhibition of PDE Sub-Types (%) 9A1
T2 construct: purchased SB Drug Discovery (Scotland, U.K.); host or cells: baculoviral system

PDE4A1 = target: T3, PDE4A1 (Homo sapiens, UniProt P27815); assay: PDE4A1 radiometric enzyme inhibition assay; format: biochemical; conditions: compound at 1 µM; read-out: Inhibition of PDE Sub-Types (%) 4A1
T3 construct: purchased SB Drug Discovery (Scotland, U.K.); host or cells: baculoviral system

human PDE2A3 [1] = target: T4, human PDE2A3 (Homo sapiens, UniProt O00408); assay: PDE2A3 radiometric enzyme inhibition assay; conditions: for Inhibition of PDE Sub-Types (%) 2A3: compound at 10 nM; for Selectivity Ratio (PDE10A/PDE2A): ratio of IC50 PDE10A to IC50 PDE2A, fold
Method: (§1) The phosphodiesterase assays were performed using recombinant human PDE enzymes expressed in a baculoviral system. […] The radiometric assay was a modification of the two-step method of Thompson and Appleman [45], which was adapted for 96-well plate format.
(§2) Firstly, tritium-labeled cyclic AMP or cyclic GMP was hydrolyzed to 5′-AMP or 5′-GMP by phosphodiesterase. The 5′-AMP or 5′-GMP was then further hydrolyzed to adenosine or guanosine by nucleotidase in snake venom. An anion-exchange resin bound all charged nucleotides and left [^3H]adenosine or [^3H]guanosine as the only labeled compound to be counted by liquid scintillation. Briefly, 50 µL of diluted human PDE enzyme were incubated with 50 µL of [^3H]-cAMP or [^3H]-cGMP and 11 µL of 50% DMSO (or compound dilution) for 20 min (at 30 °C). Reactions were carried out in a Greiner 96-deep well 1-mL master-block. The enzyme was diluted in 20 mM Tris HCl pH 7.4 and [^3H]-cAMP or [^3H]-cGMP are diluted in 10 mM MgCl2, 40 mM Tris HCl pH 7.4. The reaction is terminated by denaturing the PDE enzyme (at 70 °C for 2 min), after which 25 µL of snake venom nucleotidase were added and incubated for 10 min (at 30 °C). Plates were centrifuged for 9 seconds before incubation. After incubation, 200 µL of Dowex resin were added, and the plate was shaken for 20 min then centrifuged for 3 min at 2500 r.p.m. Fifty microliters of supernatant were removed and added to 200 µL of MicroScint-20 in white plates (Greiner 96-well Optiplate) and shaken for 30 min before reading on a Perkin Elmer TopCount Scintillation Counter.
(§3) Compounds were tested at a concentration of 10 nM against human PDE2A3 and at 1 µM for PDE4A1, PDE5A, PDE6AB, PDE9A1, and PDE10A1. The percentage of inhibition of the compounds and standard inhibitors was determined and compared to historical assay data to ensure that they fell within acceptable ranges.

PDE10A1 [2] = target: T5, PDE10A1 (Homo sapiens, UniProt Q9Y233); assay: biochemical
Method: as §1, §2, §3

PDE10A1 [3] = target: T5, PDE10A1; assay: PDE10A1 radiometric enzyme inhibition assay; conditions: for Inhibition of PDE Sub-Types (%) 10A1: compound at 1 µM
Method: as §1, §2, §3

human PDE2A3 [4] = target: T4, human PDE2A3; assay: biochemical
Method: as §1, §2, §3

PDE2A = conditions: cited from earlier work; for IC50: Figure 1
PDE10A = test system: PDE10A; set-up: method as in PMID 27213312, PMID 26016549, PMID 29498659; conditions: Figure 1; cited from earlier work
[5] = Incubation with mouse liver microsomes, HPLC-UV-MS
Method: After protein precipitation by addition of acetonitrile and subsequent centrifugation, the supernatant was examined by HPLC-UV-MS.
Analogously, preincubated NADPH (2 mM) was added, and the mixtures were gently shaken at 37 °C. After 90 min, portions of 1.0 mL of cold acetonitrile (−20 °C) were added, respectively, followed by vigorous shaking (30 s), cooling on ice (4 min), and centrifugation at 14,000 rpm (10 min). Supernatants were concentrated at 50 °C under a flow of nitrogen to provide residual volumes of 40–60 µL, which were reconditioned by adding acetonitrile/water 1:1 (v/v) to obtain samples of 100 µL, which were stored at 4 °C until analyzed by HPLC-UV-MS.
HPLC-UV-MS analyses were performed on a ReproSil-Pur 120 C18-AQ-column, 125 mm × 3 mm, 3 µm (Dr. Maisch GmbH, Ammerbuch, Germany) equipped with an appropriate precolumn at 25 °C and a flow rate of 0.7 mL/min. The solvent system consisted of Eluent A: water, containing 2 mM ammonium acetate, and Eluent B: water/acetonitrile 20/80 (v/v), containing 2 mM ammonium acetate. Two methods were applied. Method A (gradient elution, % acetonitrile): 0–1.5 min, 10%; 1.5–10 min, 10–80%; 10-13 min, 80%; 13–16 min 10%. Method B (isocratic elution, % acetonitrile): 0–25 min, 42%. […] MSQ Plus single quadrupole mass spectrometer was operated in positive electrospray ionization mode: probe temperature 500 °C, needle voltage 5 V, cone voltage 75 V.

PDE3A = target: T6, PDE3A (Homo sapiens, UniProt Q14432); assay: PDE3A radiometric enzyme inhibition assay; format: biochemical; conditions: measured at 1 µM
T6 construct: purchased SB Drug Discovery (Scotland, U.K.); host or cells: baculoviral system

PDE11A = target: T7, PDE11A (Homo sapiens, UniProt Q9HCR9); assay: PDE11A radiometric enzyme inhibition assay; format: biochemical; conditions: measured at 1 µM
T7 construct: purchased SB Drug Discovery (Scotland, U.K.); host or cells: baculoviral system

PDE7A = target: T8, PDE7A (Homo sapiens, UniProt Q13946); assay: PDE7A radiometric enzyme inhibition assay; format: biochemical; conditions: measured at 1 µM
T8 construct: purchased SB Drug Discovery (Scotland, U.K.); host or cells: baculoviral system

PDE8A1 = target: T9, PDE8A1 (Homo sapiens, UniProt O60658); assay: PDE8A1 radiometric enzyme inhibition assay; format: biochemical; conditions: measured at 1 µM
T9 construct: purchased SB Drug Discovery (Scotland, U.K.); host or cells: baculoviral system

PDE6AB = target: T10, PDE6AB (Homo sapiens, UniProt P16499+P35913); assay: PDE6AB radiometric enzyme inhibition assay; format: biochemical; conditions: measured at 1 µM
T10 construct: purchased SB Drug Discovery (Scotland, U.K.); host or cells: baculoviral system

PDE1A3 = target: T11, PDE1A3 (Homo sapiens, UniProt P54750); assay: PDE1A3 radiometric enzyme inhibition assay; format: biochemical; conditions: measured at 1 µM
T11 construct: purchased SB Drug Discovery (Scotland, U.K.); host or cells: baculoviral system
T11 sequence (P54750 whole entry): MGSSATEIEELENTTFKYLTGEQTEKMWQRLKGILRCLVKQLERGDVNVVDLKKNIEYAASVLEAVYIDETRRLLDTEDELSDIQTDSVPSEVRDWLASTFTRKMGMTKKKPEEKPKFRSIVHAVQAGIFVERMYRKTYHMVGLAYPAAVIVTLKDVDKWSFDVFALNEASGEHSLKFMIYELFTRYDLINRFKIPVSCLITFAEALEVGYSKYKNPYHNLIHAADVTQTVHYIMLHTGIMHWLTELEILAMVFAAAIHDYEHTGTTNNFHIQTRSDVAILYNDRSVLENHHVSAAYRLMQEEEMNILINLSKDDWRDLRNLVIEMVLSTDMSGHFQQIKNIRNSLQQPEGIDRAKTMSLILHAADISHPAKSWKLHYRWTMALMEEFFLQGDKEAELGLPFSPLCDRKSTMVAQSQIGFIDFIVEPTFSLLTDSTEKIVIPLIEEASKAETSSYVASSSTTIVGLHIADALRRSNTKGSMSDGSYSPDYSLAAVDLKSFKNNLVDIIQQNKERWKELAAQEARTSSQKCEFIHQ

T4 sequence (O00408 whole entry): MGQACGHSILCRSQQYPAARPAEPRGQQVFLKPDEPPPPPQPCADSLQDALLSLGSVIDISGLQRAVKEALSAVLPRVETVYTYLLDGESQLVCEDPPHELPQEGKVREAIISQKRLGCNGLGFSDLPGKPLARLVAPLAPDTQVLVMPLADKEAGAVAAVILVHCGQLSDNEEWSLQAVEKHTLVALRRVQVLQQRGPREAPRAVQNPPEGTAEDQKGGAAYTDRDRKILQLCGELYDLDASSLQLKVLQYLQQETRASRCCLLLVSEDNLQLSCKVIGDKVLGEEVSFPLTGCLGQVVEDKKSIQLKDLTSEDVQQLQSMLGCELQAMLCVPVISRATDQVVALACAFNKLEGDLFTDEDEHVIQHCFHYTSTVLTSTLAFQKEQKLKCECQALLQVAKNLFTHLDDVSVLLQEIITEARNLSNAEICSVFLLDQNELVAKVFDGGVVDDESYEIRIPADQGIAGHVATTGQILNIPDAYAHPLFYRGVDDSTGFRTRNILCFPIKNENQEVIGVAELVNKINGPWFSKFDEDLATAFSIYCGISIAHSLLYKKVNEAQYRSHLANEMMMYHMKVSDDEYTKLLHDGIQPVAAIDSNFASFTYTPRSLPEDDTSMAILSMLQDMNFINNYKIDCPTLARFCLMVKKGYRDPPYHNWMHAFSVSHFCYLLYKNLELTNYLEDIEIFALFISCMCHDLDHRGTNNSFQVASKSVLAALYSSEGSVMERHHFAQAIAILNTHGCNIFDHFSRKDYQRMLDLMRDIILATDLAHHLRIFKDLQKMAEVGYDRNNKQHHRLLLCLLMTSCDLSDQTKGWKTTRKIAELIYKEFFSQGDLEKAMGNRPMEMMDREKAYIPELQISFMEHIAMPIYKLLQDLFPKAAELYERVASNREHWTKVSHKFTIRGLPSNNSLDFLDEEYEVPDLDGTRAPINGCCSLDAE
T2 sequence (O76083 whole entry): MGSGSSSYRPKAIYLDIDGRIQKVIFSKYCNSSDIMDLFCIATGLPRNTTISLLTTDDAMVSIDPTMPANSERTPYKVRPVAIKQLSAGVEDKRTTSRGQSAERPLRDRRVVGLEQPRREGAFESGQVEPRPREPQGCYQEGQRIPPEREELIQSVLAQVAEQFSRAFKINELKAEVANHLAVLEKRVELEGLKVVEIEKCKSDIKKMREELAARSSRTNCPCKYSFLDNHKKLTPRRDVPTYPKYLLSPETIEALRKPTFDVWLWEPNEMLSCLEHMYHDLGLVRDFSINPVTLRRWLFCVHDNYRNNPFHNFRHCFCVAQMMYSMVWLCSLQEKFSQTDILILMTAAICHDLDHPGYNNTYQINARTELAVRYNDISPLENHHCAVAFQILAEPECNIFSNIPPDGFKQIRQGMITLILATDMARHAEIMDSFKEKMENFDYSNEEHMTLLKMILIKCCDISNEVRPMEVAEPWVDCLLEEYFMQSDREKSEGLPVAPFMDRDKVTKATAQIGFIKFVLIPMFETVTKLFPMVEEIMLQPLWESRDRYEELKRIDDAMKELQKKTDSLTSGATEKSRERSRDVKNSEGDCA
T5 sequence (Q9Y233 1-779 isoform Q9Y233-1): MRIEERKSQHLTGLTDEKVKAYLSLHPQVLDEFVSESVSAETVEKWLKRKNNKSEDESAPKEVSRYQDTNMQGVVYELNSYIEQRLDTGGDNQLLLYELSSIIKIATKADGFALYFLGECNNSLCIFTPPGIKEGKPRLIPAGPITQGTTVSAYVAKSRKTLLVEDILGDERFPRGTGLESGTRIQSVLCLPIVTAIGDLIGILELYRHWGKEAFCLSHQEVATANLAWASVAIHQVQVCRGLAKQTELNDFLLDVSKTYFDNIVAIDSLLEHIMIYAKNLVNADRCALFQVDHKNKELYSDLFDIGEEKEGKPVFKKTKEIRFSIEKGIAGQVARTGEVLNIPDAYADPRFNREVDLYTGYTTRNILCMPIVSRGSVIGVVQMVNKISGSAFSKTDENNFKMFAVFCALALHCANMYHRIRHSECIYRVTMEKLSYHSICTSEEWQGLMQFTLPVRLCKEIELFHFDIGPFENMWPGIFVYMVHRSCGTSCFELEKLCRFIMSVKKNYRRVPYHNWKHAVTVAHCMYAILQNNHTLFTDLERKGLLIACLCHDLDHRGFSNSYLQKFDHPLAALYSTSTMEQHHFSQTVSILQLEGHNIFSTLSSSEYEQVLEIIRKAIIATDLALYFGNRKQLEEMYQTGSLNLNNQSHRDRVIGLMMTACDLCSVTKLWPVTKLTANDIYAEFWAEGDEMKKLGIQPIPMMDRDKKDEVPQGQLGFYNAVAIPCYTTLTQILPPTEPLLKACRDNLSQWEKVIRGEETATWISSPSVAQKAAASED
T3 sequence (P27815 1-647 isoform P27815-4): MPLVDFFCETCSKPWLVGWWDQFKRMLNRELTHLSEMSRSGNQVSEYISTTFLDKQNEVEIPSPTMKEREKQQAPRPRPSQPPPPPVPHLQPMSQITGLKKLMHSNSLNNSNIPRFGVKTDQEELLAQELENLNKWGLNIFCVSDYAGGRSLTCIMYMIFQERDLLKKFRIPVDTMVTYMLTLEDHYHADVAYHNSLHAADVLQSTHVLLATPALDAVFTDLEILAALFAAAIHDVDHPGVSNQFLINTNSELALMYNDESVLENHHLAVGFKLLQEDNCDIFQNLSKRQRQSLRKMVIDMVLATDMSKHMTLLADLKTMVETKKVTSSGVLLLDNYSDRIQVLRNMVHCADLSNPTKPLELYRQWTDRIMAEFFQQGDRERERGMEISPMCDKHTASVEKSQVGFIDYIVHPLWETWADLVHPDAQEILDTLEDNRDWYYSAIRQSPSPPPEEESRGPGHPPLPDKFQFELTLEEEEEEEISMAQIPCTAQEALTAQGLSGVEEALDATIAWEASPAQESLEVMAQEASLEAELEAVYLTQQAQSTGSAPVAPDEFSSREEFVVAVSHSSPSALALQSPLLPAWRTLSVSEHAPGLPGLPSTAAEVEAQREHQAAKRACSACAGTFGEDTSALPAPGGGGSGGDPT
T7 sequence (Q9HCR9 whole entry): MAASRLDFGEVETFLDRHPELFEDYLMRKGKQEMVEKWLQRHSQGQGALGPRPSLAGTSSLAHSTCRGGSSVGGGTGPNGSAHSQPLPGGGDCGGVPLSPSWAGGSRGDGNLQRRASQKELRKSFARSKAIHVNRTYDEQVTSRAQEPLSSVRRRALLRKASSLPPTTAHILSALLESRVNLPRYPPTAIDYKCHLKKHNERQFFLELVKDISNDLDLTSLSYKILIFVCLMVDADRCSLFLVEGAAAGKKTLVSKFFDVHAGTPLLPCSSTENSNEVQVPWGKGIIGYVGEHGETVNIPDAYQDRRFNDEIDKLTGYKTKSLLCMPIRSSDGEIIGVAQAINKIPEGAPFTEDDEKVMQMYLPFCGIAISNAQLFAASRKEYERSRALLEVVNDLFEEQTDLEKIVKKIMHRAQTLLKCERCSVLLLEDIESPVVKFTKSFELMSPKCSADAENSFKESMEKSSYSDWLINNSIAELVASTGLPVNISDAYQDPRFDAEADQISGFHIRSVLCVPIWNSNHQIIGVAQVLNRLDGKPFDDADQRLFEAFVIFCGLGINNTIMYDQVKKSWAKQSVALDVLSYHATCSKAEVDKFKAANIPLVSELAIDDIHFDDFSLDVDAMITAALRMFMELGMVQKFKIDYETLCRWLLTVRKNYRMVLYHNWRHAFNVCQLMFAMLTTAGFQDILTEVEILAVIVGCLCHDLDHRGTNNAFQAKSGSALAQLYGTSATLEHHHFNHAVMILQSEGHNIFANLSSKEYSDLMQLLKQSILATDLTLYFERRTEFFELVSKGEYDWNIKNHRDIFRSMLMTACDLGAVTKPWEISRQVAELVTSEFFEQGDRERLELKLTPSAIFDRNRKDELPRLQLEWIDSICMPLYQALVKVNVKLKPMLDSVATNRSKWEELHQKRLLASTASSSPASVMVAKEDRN
T8 sequence (Q13946 whole entry): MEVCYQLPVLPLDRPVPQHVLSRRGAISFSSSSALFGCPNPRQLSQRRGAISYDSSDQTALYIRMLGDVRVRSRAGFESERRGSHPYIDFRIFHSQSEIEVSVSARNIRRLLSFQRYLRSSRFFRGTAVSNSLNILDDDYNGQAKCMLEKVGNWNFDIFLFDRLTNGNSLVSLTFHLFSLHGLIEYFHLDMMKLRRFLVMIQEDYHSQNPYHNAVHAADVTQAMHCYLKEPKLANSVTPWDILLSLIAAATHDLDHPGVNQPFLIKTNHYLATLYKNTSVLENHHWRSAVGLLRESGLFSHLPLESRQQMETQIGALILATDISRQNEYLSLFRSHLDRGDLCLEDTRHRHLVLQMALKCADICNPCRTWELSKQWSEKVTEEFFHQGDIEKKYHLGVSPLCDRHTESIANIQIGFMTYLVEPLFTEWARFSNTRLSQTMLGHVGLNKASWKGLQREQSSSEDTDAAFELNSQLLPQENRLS

| SMILES | inhibition at 1 µM (PDE5A1) | inhibition at 1 µM (PDE9A1) | inhibition at 1 µM (PDE4A1) | Inhibition of PDE Sub-Types (%) 10A1 (PDE10A1 [3]) | IC50 (PDE2A) | IC50 (PDE10A) | Inhibition of PDE Sub-Types (%) 2A3 (human PDE2A3 [1]) | other results |
| --- | --- | --- | --- | --- | --- | --- | --- | --- |
| CCCCOc1ccc(F)c(-c2nc(C)c3nnc4ccc(OC)nc4n23)c1 [TA1, reference compound] | 3.08% | < 0% | 24.9% | – | – | – | – | – |
| COc1ccc(F)c(-c2nc(C)c3nnc4ccc(-c5ccnc(F)c5)cc4n23)c1 [BIT6, 1-(2-Fluoro-5-methoxyphenyl)-8-(2-fluoropyridin-4-yl)-3-methylbenzo[e]imidazo[5,1-c][1,2,4]triazine] | 13.6% | 28.4% | 54.2% | 74.0% | – | – | – | Inhibition of PDE Sub-Types (%) 2A3 (human PDE2A3 [1]; 0.01 µM): 56% and 56.6%; Selectivity Ratio (PDE10A/PDE2A) (human PDE2A3 [1]): 2.5; IC50 (PDE10A1 [2]): 0.168 µM; IC50 (human PDE2A3 [4]): 0.0651 µM |
| COc1ccc(Cl)c(-c2nc(C)c3nnc4ccc(F)cc4n23)c1 [III] | – | – | – | – | 0.0201 µM | 0.183 µM | – | – |
| COc1ccc(Cl)c(-c2nc(C)c3nnc4ccc(-c5cccnc5F)cc4n23)c1 [BIT5, 1-(2-Chloro-5-methoxyphenyl)-8-(2-fluoropyridin-3-yl)-3 methylbenzo[e]imidazo[5,1-c][1,2,4]triazine] | < 0% | < 0% | < 0% | 22.1% | – | – | NI (NI: No Inhibition) | Selectivity over PDE10A compared to BIT7 (PDE10A1 [3]): four |
| CCCCOc1ccc(F)c(-c2nc(C)c3nnc4ccc(OCCF)nc4n23)c1 [TA5] | – | – | – | – | – | > 1 µM | – | – |
| COc1ccc2nnc3c(C)nc(-c4cc(OCCCF)ccc4F)n3c2n1 [TA3] | – | – | – | – | 0.0114 µM | 0.318 µM | – | Selectivity for PDE2A over PDE10A (PDE2A): 28 fold |
| COc1cc(Br)cc2c1nc(C)c1c(C)nc(-c3ccc(F)nc3)n12 [AQ28A] | – | – | – | – | > 1 µM | 0.00295 µM | – | – |
| COc1ccc(Cl)c(-c2nc(C)c3nnc4ccc(-c5cncc(F)c5)cc4n23)c1 [BIT7, 1-(2-Chloro-5-methoxyphenyl)-8-(3-fluoropyridin-5-yl)-3 methylbenzo[e]imidazo[5,1-c][1,2,4]triazine] | 25.1% | 11.5% | 65.7% | 87.0% | – | – | – | – |
| COc1ccc(F)c(-c2nc(C)c3nnc4ccc(-c5ccncc5)cc4n23)c1 [BIT9, 1-(2-Fluoro-5-methoxyphenyl)-3-methyl-8-(pyridin-4-yl)benzo[e]imidazo[5,1-c][1,2,4]triazine] | 57.7% | 17.5% | 86.8% | 96.6% | – | – | 80.5% | Selectivity Ratio (PDE10A/PDE2A) (human PDE2A3 [1]): 1.1; IC50 (PDE10A1 [2]): 0.0202 µM; IC50 (human PDE2A3 [4]): 0.0177 µM |
| Cc1nc(-c2cc(OCC3(C)COC3)ccc2Cl)n2c1nnc1ccc(-c3ccnc(F)c3)cc12 [BIT3, 1-(2-Chloro-5-((3-methyloxetan-3-yl)methoxy)phenyl)-8-(2-fluoropyridin-4-yl)-3-methylbenzo[e]imidazo[5,1-c][1,2,4]triazine] | < 0% | < 0% | 72.7% | 28.2% | – | – | 13.2% | – |
| COc1ccc(F)c(-c2nc(C)c3nnc4ccc(-c5cccnc5)cc4n23)c1 [BIT8, 1-(2-Fluoro-5-methoxyphenyl)-3-methyl-8-(pyridin-3-yl)benzo[e]imidazo[5,1-c][1,2,4]triazine] | 36.2% | < 0% | 13.9% | 55.5% | – | – | NI (NI: No Inhibition) | – |
| Cc1nc(-c2cc(OCC3(C)COC3)ccc2Cl)n2c1nnc1ccc(-c3ccc(F)nc3)cc12 [BIT2, 1-(2-Chloro-5-((3-methyloxetan-3-yl)methoxy)phenyl)-8-(6-fluoropyridin-3-yl)-3-methylbenzo[e]imidazo[5,1-c][1,2,4]triazine] | < 0% | < 0% | 64.1% | 2.46% | – | – | 8.52% | – |
| C[C@]12CC[C@H]3[C@@H](CCC4=CC(=O)CC[C@@]43C)[C@@H]1CC[C@@H]2O [testosterone, reference compound] | – | – | – | – | – | – | – | Conversion of positive control substrate ([5]; MLM with NADPH, confirmed by HPLC): complete conversion |
| COc1ccc(Cl)c(-c2nc(C)c3nnc4ccc(-c5ccc(F)nc5)cc4n23)c1 [BIT4, 1-(2-Chloro-5-methoxyphenyl)-8-(6-fluoropyridin-3-yl)-3 methylbenzo[e]imidazo[5,1-c][1,2,4]triazine] | < 0% | < 0% | < 0% | 10.8% | – | – | 2.63% | Selectivity over PDE10A compared to BIT7 (PDE10A1 [3]): eight |
| COc1ccc(Cc2nn3c([C@H](CCCc4ccccc4)[C@H](C)O)nc(C)c3c(=O)[nH]2)cc1OC [BAY 60-7550] | – | – | – | – | 0.0047 µM | – | – | – |
| COc1ccc(Cl)c(-c2nc(C)c3nnc4ccc(-c5ccnc(F)c5)cc4n23)c1 [BIT1, 1-(2-Chloro-5-methoxyphenyl)-8-(2-fluoropyridin-4-yl)-3methylbenzo[e]imidazo[5,1-c][1,2,4]triazine] | 29.3% | < 0% | 58.6% | – | – | – | – | inhibition at 1 µM (PDE3A): 20%; inhibition at 1 µM (PDE11A): 14.5%; inhibition at 1 µM (PDE7A): 16.4%; inhibition at 1 µM (PDE8A1): 23.3%; Metabolic stability in vitro ([5]; MLM 1 mg/mL, NADPH 2 mM, 20 µM compound, 37 °C, 90 min): unchanged BIT1 could still be detected in high amounts; also recorded: considerable metabolic stability; also recorded: sufficiently stable; inhibition at 1 µM (PDE6AB): 16.8%; inhibition at 1 µM (PDE1A3): 12.6% |
| COc1ccc2nnc3c(C)nc(-c4cc(OCCCCF)ccc4F)n3c2n1 [TA4] | – | – | – | – | 0.0073 µM | 0.913 µM | – | Selectivity for PDE2A over PDE10A (PDE2A): 125 fold |
| COc1ccc(Cl)c(-c2nc(C)c3nnc4c(OC)cc(F)cc4n23)c1 [II] | – | – | – | – | 0.108 µM | 0.00245 µM | – | – |
